Assay results published in patent US6403125B1, “Utilization of an extract of a plant of the Cecropia genus” (Cognis France (Societe Anonyme), priority 1998, dated 2002).

System: human adipocytes
Experiment: Lipolysis activation on human adipocytes in vitro (glycerin release)
Format: cell-based
Conditions: 90 minutes at 37° C.
From the text: I. Evidence of the Lipolysis Activation Effect on Human Adipocytes in “in vitro” Survival The test used to emphasise the lipolysis activation of human adipocytes in the presence of Cecropia extracts, which are the subject of the present invention, is described below. Lipolysis is removal of triglycerides (or TG) stored in the adipocytes by a hormone-sensitive enzyme, triglyceride lipase (or TGL) which splits the TG into free fatty acids and glycerin which are removed in the blood circulation. The fatty acids can then be absorbed by the muscle cells to produce energy. 1) Principle of the in vitro Test Activation of lipolysis is evaluated by spectrophotometric metering of the rate of glycerin salted out by adipocytes, incubated “in vitro” with the substance to be tested present. The adipocytes are isolated by enzymatic digestion of subcutaneous human tissue by the so-called Rodbell method (see M. Rodbell: “Metabolism of isolated fat cells”. The journal of biological chemistry, Vol. 239, No. 2, pages 375 to 380, 1964). […] 3) Quantisation of the Lipolysis The rate of salted-out glycerin is quantified by spectrophotometry in the medium of the material which floats on the surface by the method described by C. […] The results are expressed as mean values of the activation percentage relative to a proof mass batch (without Cecropia extract).

Row | Compound | % activation of the lipolysis relative to the proof mass without extract (mean) (1 mM) | % activation of the lipolysis relative to the proof mass without extract (mean) (0.1 μM)
1 | Cn1c(=O)c2[nH]cnc2n(C)c1=O [Theophylline, theophylline] | + 70% | 
2 | CC(C)NCC(O)c1ccc(O)c(O)c1 (centres unmarked) [Isoprenaline, isoprenaline] |  | + 45%
